Legend:
MCF-7 cells = test: Test 1: growth inhibition of MCF-7 human breast cancer cells; assay type: cell-based; details: Homo sapiens, MCF7, 72 hours culture with sample, read-out: GI50 (50% growth inhibition concentration)
Experimental: Used in the test were MCF-7 cells which were established from human breast cancer and were cultured routinely under the conditions of 37° C. and 5% CO2, in MEM medium supplemented with 10% fetal calf serum, 25 mM of HEPES and 0.1 mg/ml of kanamycin. The MCF-7 cells in a logarithmic growth phase were treated with trypsin/EDTA to prepare single cell suspension adjusted to 4.0×10^4 cells/ml in MEM medium (supplemented with 10% fetal calf serum, 25 mM of HEPES and 0.1 mg/ml of kanamycin). Test compounds were dissolved in DMSO and diluted with RPMI 1640 medium (supplemented with 10% fetal calf serum, 25 mM of HEPES and 0.1 mg/ml of kanamycin) to a concentration of 2.0×10^−4-2.0×10^−9 M.
The cell suspension was filled in a 96-wells microplate at a rate of 0.1 ml per well and was cultured for 24 hours so as to make the cells adhered to the microplate. Then, it was added with 0.1 ml of the sample solution and cultured at 37° C. for 72 hours in 5% CO2.
50% Growth inhibition concentrations (GI50 μM) were calculated from growth inhibitions at various sample concentrations.

Human colon cancer WiDr = test: Test 2: human colon cancer WiDr subcutaneous tumor in nude mice; assay type: in vivo, mutant BALA/c nude mice; details: intraperitoneally 200 mg/kg, once a day, six times a week, for two weeks
Experimental: Human colon cancer WiDr was grown as subcutaneous tumor in mutant BALA/c nude mice. 2-mm-cube tumor fragments were transplanted subcutaneously into left flank of the nude mice. When the tumor reached logarithmic growth phase, mice were divided randomly into test groups consisting five mice per group. The samples prepared by dissolving test compounds in physiological saline solution or suspending them in 1% hydroxypropyl cellulose (HPC), using an agate mortar, were intraperitoneally administered at a rate of 200 mg/kg, once a day and six times a week in total, for two weeks. Major and minor axes of the tumor mass were measured on a daily basis to calculate tumor volume. The tumor volume at each measured day was divided by that at the start day of the sample administration to calculate relative tumor growth rate; and the relative tumor growth rate of the treated groups (T) and that of the control group (C) were used to calculate T/C (%).

Row | GI50 (MCF-7 cells) [nM] | melting point | Compound | judgment (T/C (%) of relative tumor growth rate, last day) (Human colon cancer WiDr)
1 | 160 | 135 to 138 °C | C[C@@H]1OCCN(c2nc(N3CCOCC3)nc(-n3c(C(F)F)nc4ccccc43)n2)[C@H]1C (relative stereo) [compound 14, 2-(2-difluoromethylbenzimidazol-1-yl)-4-(trans-2,3-dimethylmorpholino)-6-morpholino-1,3,5-triazine] | + (Cases where T/C (%) of the last day was less than 50% and U-assay of Mann-Whitney revealed significant difference with one-sided risk rate of 1% were judged to be effective (+))
2 | 240 | 141 to 145 °C | C[C@@H]1OCCN(c2cc(N3CCOCC3)nc(-n3c(N)nc4ccccc43)n2)[C@H]1C.Cl (relative stereo) [compound 31, 2-(2-aminobenzimidazol-1-yl)-4-(trans-2,3-dimethylmorpholino)-6-morpholinopyrimidine hydrochloride] | + (Cases where T/C (%) of the last day was less than 50% and U-assay of Mann-Whitney revealed significant difference with one-sided risk rate of 1% were judged to be effective (+))
3 | 80 | 220 to 222 °C (dec.) | C[C@@H]1OCCN(c2nc(N3CCOCC3)nc(-n3c(C(F)F)nc4ccc(N)cc43)n2)[C@@H]1C (relative stereo) [compound 33, 2-(6-amino-2-difluoromethylbenzimidazol-1-yl)-4-(2,3-cis-dimethylmorpholino)-6-morpholino-1,3,5-triazine] | + (Cases where T/C (%) of the last day was less than 50% and U-assay of Mann-Whitney revealed significant difference with one-sided risk rate of 1% were judged to be effective (+))
4 | 90 |  | FC(F)c1nc2ccccc2n1-c1nc(N2CCOCC2)nc(N2CCOCC2)n1 [compound 19, 2-(2-difluoromethylbenzimidazol-1-yl)-4,6-dimorpholino-1,3,5-triazine] | + (Cases where T/C (%) of the last day was less than 50% and U-assay of Mann-Whitney revealed significant difference with one-sided risk rate of 1% were judged to be effective (+))
5 | 220 | 169 to 171 °C | C[C@@H]1COC(C)(C)CN1c1nc(N2CCOCC2)nc(-n2c(C(F)F)nc3ccccc32)n1 [compound 20, 2-(2-difluoromethylbenzimidazol-1-yl)-4-morpholino-6-[2,2,5(R)-trimethylmorpholino]-1,3,5-triazine] | 
6 | 230 | 243 to 245 °C | CC(=O)Nc1nc2ccccc2n1-c1nc(N2CCOCC2)nc(N2CCOCC2)n1 [compound 22, 2-(2-acetylaminobenzimidazol-1-yl)-4,6-dimorpholino-1,3,5-triazine] | + (Cases where T/C (%) of the last day was less than 50% and U-assay of Mann-Whitney revealed significant difference with one-sided risk rate of 1% were judged to be effective (+))
7 | 250 | 206 to 209 °C | COC(=O)Nc1nc2ccccc2n1-c1nc(N2CCOCC2)nc(N2CCOCC2)n1 [compound 29, 2-(2-methoxycarbonylaminobenzimidazol-1-yl)-4,6-dimorpholino-1,3,5-triazine] | 
8 | 180 | 226 to 227 °C (dec.) | CC1(C)CN(c2nc(N3CCOCC3)nc(-n3c(C(F)F)nc4ccc(N)cc43)n2)CCO1 [compound 32, 2-(6-amino-2-difluoromethylbenzimidazol-1-yl)-4-(2,2-dimethylmorpholino)-6-morpholino-1,3,5-triazine] | + (Cases where T/C (%) of the last day was less than 50% and U-assay of Mann-Whitney revealed significant difference with one-sided risk rate of 1% were judged to be effective (+))
9 | 80 | 214 to 216 °C (dec.) | Nc1cccc2c1nc(C(F)F)n2-c1nc(N2CCOCC2)nc(N2CCOCC2)n1 [compound 34, 2-(4-amino-2-difluoromethylbenzimidazol-1-yl)-4,6-dimorpholino-1,3,5-triazine] | 
10 | 140 | 218 to 219 °C (dec.) | Nc1ccc2nc(C(F)F)n(-c3nc(N4CCOCC4)cc(N4CCOCC4)n3)c2c1 [compound 35, 2-(6-amino-2-difluoromethylbenzimidazol-1-yl)-4,6-dimorpholinopyrimidine] | 
11 | 30 | 228 to 231 °C (dec.) | CC1(C)CN(c2nc(N3CCOCC3)nc(-n3c(C(F)F)nc4c(O)cccc43)n2)CCO1 [compound 38, 2-(2-difluoromethyl-4-hydroxybenzimidazol-1-yl)-4-(2,2-dimethylmorpholino)-6-morpholino-1,3,5-triazine] | 
12 | 60 | 239 to 243 °C (dec.) | CC1(C)OCCN1c1nc(N2CCOCC2)nc(-n2c(C(F)F)nc3cc(O)ccc32)n1 [compound 39, 2-(2-difluoromethyl-5-hydroxybenzimidazol-1-yl)-4-(2,2-dimethyloxazolidin-3-yl)-6-morpholino-1,3,5-triazine] | 
13 | 210 | 223 to 226 °C (dec.) | Oc1ccc2c(c1)nc(C(F)F)n2-c1nc(N2CCOCC2)cc(N2CCOCC2)n1 [compound 40, 2-(2-difluoromethyl-5-hydroxybenzimidazol-1-yl)-4,6-dimorpholinopyrimidine] | 
